Data set [1] concerns LNCaP. Description: Antiproliferative activity against human LNCAP cells. Format: functional, cell-based.
Data set [2] addresses hERG (KCNH2) (Homo sapiens, UniProt Q12809). Description: Inhibition of ERG in human HEK293 cells at 3 uM at -80 mV holding potential by whole-cell patch clamp assay relative to control. It counts as cell-based. Particulars: HEK293 cells expressing ERG. Background: In patch-clamp work, channel activity is measured electrically.
In data set [3] the test system is OVCAR-8. In words: Antiproliferative activity against human OVCAR8 cells. It counts as functional, cell-based.
For data set [4], the target named is RAC-alpha serine/threonine-protein kinase (Homo sapiens, UniProt P31749).
Sequence of RAC-alpha serine/threonine-protein kinase (P31749 whole entry): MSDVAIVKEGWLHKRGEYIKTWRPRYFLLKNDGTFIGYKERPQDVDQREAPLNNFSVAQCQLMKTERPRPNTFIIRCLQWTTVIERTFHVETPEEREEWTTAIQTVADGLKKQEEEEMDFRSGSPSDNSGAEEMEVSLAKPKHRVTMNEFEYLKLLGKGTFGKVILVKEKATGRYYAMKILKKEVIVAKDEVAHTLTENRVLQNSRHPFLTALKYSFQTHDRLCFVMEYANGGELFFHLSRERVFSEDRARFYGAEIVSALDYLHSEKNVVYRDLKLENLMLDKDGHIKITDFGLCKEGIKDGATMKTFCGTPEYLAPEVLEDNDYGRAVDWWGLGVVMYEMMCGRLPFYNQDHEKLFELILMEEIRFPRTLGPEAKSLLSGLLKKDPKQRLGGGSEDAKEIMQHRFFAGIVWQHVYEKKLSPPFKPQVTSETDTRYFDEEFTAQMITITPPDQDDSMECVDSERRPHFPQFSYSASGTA
Description: Inhibition of human Akt1 expressed in Escherichia coli using STK Substrate 2-biotin as substrate incubated for 1 hr by HTRF assay
Data set [5] has as its system HCT-116. In words: cells. To be noted: Homo sapiens, HCT-116, 72 h.

Sequence of hERG (KCNH2) (Q12809 whole entry): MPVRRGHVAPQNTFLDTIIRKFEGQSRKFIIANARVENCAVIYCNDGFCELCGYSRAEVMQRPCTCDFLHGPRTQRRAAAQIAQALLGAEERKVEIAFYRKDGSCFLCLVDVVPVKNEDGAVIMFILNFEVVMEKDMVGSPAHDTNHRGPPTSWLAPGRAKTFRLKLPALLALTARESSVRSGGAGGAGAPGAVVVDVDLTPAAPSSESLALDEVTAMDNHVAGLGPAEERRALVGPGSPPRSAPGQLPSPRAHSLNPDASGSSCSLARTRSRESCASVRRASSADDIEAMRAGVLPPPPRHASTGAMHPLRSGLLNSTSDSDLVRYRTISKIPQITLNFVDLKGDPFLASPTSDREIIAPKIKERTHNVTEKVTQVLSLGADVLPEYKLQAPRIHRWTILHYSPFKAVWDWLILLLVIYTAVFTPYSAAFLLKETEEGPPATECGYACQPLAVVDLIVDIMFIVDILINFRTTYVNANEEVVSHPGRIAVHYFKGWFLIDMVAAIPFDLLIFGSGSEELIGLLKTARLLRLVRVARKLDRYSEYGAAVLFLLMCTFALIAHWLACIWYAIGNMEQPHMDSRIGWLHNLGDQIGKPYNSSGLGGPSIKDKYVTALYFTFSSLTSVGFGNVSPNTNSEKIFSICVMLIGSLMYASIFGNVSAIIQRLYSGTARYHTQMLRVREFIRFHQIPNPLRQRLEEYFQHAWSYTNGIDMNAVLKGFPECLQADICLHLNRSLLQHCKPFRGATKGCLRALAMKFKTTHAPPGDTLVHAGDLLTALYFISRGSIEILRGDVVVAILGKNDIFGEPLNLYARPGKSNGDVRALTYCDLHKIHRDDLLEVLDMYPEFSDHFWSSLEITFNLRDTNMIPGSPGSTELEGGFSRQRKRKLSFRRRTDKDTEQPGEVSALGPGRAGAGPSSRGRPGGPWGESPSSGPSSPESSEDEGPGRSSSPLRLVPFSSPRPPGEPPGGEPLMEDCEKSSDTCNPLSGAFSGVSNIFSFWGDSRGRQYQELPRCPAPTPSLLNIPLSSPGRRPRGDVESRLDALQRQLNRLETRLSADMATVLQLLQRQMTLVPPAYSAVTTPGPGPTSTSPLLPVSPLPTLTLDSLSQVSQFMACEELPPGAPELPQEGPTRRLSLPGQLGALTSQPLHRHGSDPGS

Broadly, the IC50 is the midpoint of a concentration-inhibition curve. The low end stands for inhibition by little substance, the high end for a need for much substance. For orientation: inhibition means the drop in the measured response relative to a control, in per cent. Higher therefore signals a response far below the control. Turning to `Cn1ncc(Cl)c1-c1cc(C(=O)N[C@@H]2CN[C@H](CCCO)C[C@H]2c2ccc(Cl)c(Cl)c2)oc1Cl`, the IC50 in data set [1] was 210 nM; in data set [3], 600 nM; in data set [4], 2.56 nM; in data set [5], 510 nM. In addition, the inhibition at 3 µM in data set [2] was found to be 72%.
In the same order, the values of `Cn1ncc(Cl)c1-c1cc(C(=O)N[C@@H]2CN[C@H](CCNS(C)(=O)=O)C[C@H]2c2ccc(F)c(F)c2)oc1Cl` are 50 nM, 1530 nM, 3.29 nM, 920 nM and 8%.
For `CN(C)CC[C@@H]1C[C@@H](c2ccc(Cl)c(Cl)c2)[C@H](NC(=O)c2cc(-c3c(Cl)cnn3C)c(Cl)o2)CN1`, in that order: 1930 nM, 1510 nM, 3.4 nM, 1710 nM and 73.4%.
`Cn1ncc(Cl)c1-c1cc(C(=O)N[C@@H]2CN[C@H](CC(=O)O)C[C@H]2c2ccc(Cl)c(Cl)c2)oc1Cl`: the 50% inhibitory concentration (IC50) worked out at 640 nM in data set [1], 5120 nM in data set [3], 1.94 nM in data set [4] and 4020 nM in data set [5]. In data set [2], the inhibition at 3 µM was determined as 9.1%.
In the same order, the values of `Cn1ncc(Cl)c1-c1cc(C(=O)N[C@@H]2CNCC[C@H]2c2ccc(Cl)c(Cl)c2)oc1Cl` are 100 nM, 110 nM, 2.9 nM, 280 nM and 87%.
On to `CCC[C@@H]1C[C@@H](c2ccc(Cl)c(Cl)c2)[C@H](NC(=O)c2cc(-c3c(Cl)cnn3C)c(Cl)o2)CN1`, for which testing at 3 µM in data set [2] gave an inhibition of 85.3%. Besides, the results for the IC50 in data set [3], in data set [4] and in data set [5] were 1620 nM, 10.4 nM and 1020 nM, respectively.
For the molecule `Cn1ncc(Cl)c1-c1cc(C(=O)N[C@@H]2CN[C@H](CCN3CCC(O)CC3)C[C@H]2c2ccc(Cl)c(Cl)c2)oc1Cl`, the IC50 in data set [1] was determined as 1140 nM; in data set [3] it was 15900 nM; in data set [4], 5.99 nM; in data set [5], 13700 nM. The molecule further yielded an inhibition at 3 µM in data set [2] of 12%.
For `Cn1ncc(Cl)c1-c1cc(C(=O)N[C@@H]2CN[C@H](CC(N)=O)C[C@H]2c2ccc(Cl)c(Cl)c2)oc1Cl`, in that order: 160 nM, 1000 nM, 3.24 nM, 650 nM and 15.7%.
On to `Cn1ncc(Cl)c1-c1ccc(C(=O)N[C@@H]2CNCC[C@H]2c2cccc(F)c2)cc1`, for which 3 µM produced 10.7% inhibition in data set [2]. Also, the figures for the IC50 in data set [3] and in data set [4] were 5820 nM and 72.3 nM, respectively.
Regarding `Cn1ncc(Cl)c1-c1cc(C(=O)N[C@@H]2CN[C@H](CCN3CCCCC3)C[C@H]2c2ccc(Cl)c(Cl)c2)oc1Cl`, the half-maximal inhibitory concentration (IC50) in data set [1] came to 1780 nM; in data set [3] it was 1660 nM; in data set [4], 5.65 nM; in data set [5], 1020 nM. 3 µM produced 93.1% inhibition in data set [2].
Turning to `Cn1ncc(Cl)c1-c1cc(C(=O)N[C@@H]2CN[C@H](CC(O)CO)C[C@H]2c2ccc(F)c(F)c2)oc1Cl` (stereo not given in full), the half-maximal inhibitory concentration (IC50) in data set [1] was determined as 100 nM; in data set [3], 690 nM; in data set [4] it was 3.31 nM; in data set [5], 800 nM. Further, testing at 3 µM in data set [2] gave an inhibition of 4.7%.
For `Cn1ncc(Cl)c1-c1cc(C(=O)N[C@@H]2CN[C@H](CC(O)CO)C[C@H]2c2ccc(Cl)c(Cl)c2)oc1Cl` (stereo not given in full), in that order: 70 nM, 1610 nM, 3.79 nM, 1110 nM and 17%.
The molecule `Cn1cc(-c2c(Br)cnn2C)cc1C(=O)N[C@@H]1CNCC[C@H]1c1ccc(Cl)cc1` displayed an inhibition at 3 µM in data set [2] of 63.8%. The IC50 in data set [3] is 3030 nM; in data set [4], 255 nM; in data set [5], 8700 nM.
Turning to `Cn1nccc1-c1ccc(C(=O)N[C@@H]2CNCC[C@H]2c2ccc(F)c(F)c2)cc1`, the inhibition at 3 µM in data set [2] was found to be 25%. The IC50 turned out to be 5330 nM in data set [3], 21.6 nM in data set [4] and 3720 nM in data set [5].

The values are drawn from ChEMBL document CHEMBL4406807, “Discovery of 3,4,6-Trisubstituted Piperidine Derivatives as Orally Active, Low hERG Blocking Akt Inhibitors via Conformational Restriction and Structure-Based Design” (J Med Chem, 2019).
